Results: patent publication US20250215010A1, “DIAZABICYCLOOCTANE DERIVATIVES USEFUL AS MATRIX METALLOPROTEINASE INHIBITORS” (VASA THERAPEUTICS SPOLKA Z OGRANICZONA ODPOWIEDZIALNOSCIA, priority 2022, published 2025)

What was measured:
Assay type in all cases: biochemical
ADAM17 (TACE) = ADAM17 (TACE) (Homo sapiens, UniProt P78536); experiment: TACE fluorometric inhibition assay (Enzo kit BML-AK310); conditions: quenched fluorogenic peptide, ex/em 320/420 nm; read-out: TACE IC50 class
Procedure: (§1) The inhibitory activities of the compounds of the invention were assessed in 96-well microplate format using MMP1, MMP2, MMP9 and MMP13 colorimetric assay kits and TACE fluorometric assay kit from Enzo Life Sciences, Inc. The inhibitory effect of the compounds of the invention on ADAM10 activity were evaluated in 96-well microplate format using fluorometric assay from AnaSpec, Inc.
The TACE Fluorometric Drug Discovery Kit (catalog #BML-AK310) is a complete assay system designed to screen ADAM17 (TACE) inhibitors using a quenched fluorogenic peptide: Mca-PLAQAV-Dpa-RSSSR—NH2. Mca fluorescence is quenched by the Dpa group until cleavage by proteases separates the two moieties leading to an increase in Mca fluorescence.
The inhibitory activity of the compounds of the invention against TACE was tested according to the manufacturer's assay protocol and the fluorescence was monitored at excitation/emission wavelengths=320 nm/420 nm using Tecan Infinite® 200 Pro F Nano^+ microplate reader.
(§2) The normalized values were analyzed using GraphPadPrism 9 for Windows (GraphPad Software, San Diego, CA, USA) software by plotting inhibition curves and determining the IC50 values (in nM).

MMP2 = target: T1, MMP2 (Homo sapiens, UniProt P08253); experiment: MMP-2 colorimetric inhibition assay (Enzo kit BML-AK408); conditions: thiopeptide substrate, absorbance 415 nm; read-out: MMP 2 IC50 class
T1 sequence (P08253 110-660): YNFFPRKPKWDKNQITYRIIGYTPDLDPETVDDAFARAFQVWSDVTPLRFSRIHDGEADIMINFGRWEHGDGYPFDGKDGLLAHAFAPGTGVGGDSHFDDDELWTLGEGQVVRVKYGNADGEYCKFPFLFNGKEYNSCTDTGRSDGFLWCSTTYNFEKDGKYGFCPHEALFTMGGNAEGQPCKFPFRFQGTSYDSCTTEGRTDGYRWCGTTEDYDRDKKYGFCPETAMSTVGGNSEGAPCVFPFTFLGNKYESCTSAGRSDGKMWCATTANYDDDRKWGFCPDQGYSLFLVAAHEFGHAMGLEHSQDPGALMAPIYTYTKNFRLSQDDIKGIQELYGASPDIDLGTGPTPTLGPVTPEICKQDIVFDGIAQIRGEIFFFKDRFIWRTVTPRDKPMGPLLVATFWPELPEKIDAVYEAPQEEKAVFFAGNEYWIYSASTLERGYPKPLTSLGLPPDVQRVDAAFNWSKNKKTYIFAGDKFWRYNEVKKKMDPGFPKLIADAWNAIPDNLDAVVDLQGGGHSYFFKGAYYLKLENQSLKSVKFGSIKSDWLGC
Procedure: as §1
(§3) The MMP-2 Colorimetric Drug Discovery Kit (catalog #BML-AK408) is a complete assay system designed to screen MMP-2 inhibitors using a thiopeptide as a chromogenic substrate (Ac-PLG-[2-mercapto-4-methylpentanoyl]-LG-OC2H5). The MMP cleavage site peptide bond is replaced by a thioester bond in the thiopeptide. Hydrolysis of this bond by an MMP produces a sulfhydryl group, which reacts with DTNB [5,5′-dithiobis(2-nitrobenzoic acid), Ellman's reagent] to form 2-nitro-5-thiobenzoic acid, that can be detected spectrophotometrically.
(§4) The inhibitory activities of the compounds of the invention against MMP1, MMP2, MMP9 and MMP13 were tested according to the manufacturer's assay protocols and the absorbance at 415 nm was monitored using the Tecan Infinite® 200 Pro F Nano^+ microplate reader.
as §2

MMP9 = MMP9 (Homo sapiens, UniProt P14780); experiment: MMP-9 colorimetric inhibition assay (Enzo kit BML-AK410); conditions: thiopeptide substrate, absorbance 415 nm; read-out: MMP 9 IC50 class
Procedure: as §1
as §3, with “MMP-9” for “MMP-2”, “#BML-AK410)” for “#BML-AK408)”, “screen” for “screen MMP-2”, “inhibitors of matrix metalloproteinase-9” for “inhibitors”
as §4, §2

MMP1 = target: T2, MMP1 (Homo sapiens, UniProt P03956); experiment: MMP-1 colorimetric inhibition assay (Enzo kit BML-AK404); conditions: thiopeptide substrate, absorbance 415 nm; read-out: MMP 1 IC50 class
T2 sequence (P03956 100-269 limits assumed): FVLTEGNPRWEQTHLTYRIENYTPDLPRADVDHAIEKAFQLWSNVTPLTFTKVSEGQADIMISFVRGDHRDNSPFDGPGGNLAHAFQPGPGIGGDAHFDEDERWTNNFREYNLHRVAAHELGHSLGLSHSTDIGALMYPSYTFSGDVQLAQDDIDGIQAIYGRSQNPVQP
Procedure: as §1
as §3, with “MMP-1” for “MMP-2”, “#BML-AK404)” for “#BML-AK408)”, “screen” for “screen MMP-2”, “inhibitors of matrix metalloproteinase-1” for “inhibitors”
as §4, §2

MMP13 = target: T3, MMP13 (Homo sapiens, UniProt P45452); experiment: MMP-13 colorimetric inhibition assay (Enzo kit BML-AK412); conditions: thiopeptide substrate, absorbance 415 nm; read-out: MMP 13 IC50 class
T3 construct: purchased Enzo Life Sciences, Inc. BML-AK412
Procedure: as §1
as §3, with “MMP-13” for “MMP-2”, “#BML-AK412)” for “#BML-AK408)”, “screen” for “screen MMP-2”, “inhibitors of matrix metalloproteinase-13” for “inhibitors”
as §4, §2

MMP9, sequence (P14780 94-707): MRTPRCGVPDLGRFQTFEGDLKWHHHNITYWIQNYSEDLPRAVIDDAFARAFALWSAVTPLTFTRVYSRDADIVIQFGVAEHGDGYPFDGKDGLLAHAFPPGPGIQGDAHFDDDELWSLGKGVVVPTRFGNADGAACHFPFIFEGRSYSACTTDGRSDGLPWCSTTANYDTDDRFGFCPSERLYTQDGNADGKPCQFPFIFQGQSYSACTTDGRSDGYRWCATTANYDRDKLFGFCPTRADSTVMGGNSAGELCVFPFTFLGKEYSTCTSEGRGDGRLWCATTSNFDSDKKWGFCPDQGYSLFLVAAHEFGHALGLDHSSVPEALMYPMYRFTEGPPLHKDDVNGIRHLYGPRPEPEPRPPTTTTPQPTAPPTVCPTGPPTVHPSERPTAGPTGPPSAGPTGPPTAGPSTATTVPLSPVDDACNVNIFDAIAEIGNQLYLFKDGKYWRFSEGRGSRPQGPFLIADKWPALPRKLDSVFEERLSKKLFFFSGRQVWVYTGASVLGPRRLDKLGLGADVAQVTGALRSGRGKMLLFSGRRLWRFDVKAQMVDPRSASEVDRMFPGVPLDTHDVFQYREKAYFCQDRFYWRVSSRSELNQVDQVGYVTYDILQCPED
ADAM17 (TACE), sequence (P78536 215-477 limits assumed): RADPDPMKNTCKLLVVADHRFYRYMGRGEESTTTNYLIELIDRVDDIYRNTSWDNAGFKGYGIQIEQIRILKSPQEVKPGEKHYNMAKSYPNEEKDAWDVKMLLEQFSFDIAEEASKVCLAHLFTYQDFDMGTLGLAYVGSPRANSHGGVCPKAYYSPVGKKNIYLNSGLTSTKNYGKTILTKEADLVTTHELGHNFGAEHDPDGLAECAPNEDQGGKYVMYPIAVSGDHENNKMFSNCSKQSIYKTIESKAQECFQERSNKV

| Compound | IC50 (ADAM17 (TACE)) | IC50 (MMP2) | IC50 (MMP9) | IC50 (MMP1) | IC50 (MMP13) |
| --- | --- | --- | --- | --- | --- |
| CCOC(=O)N1[C@@H]2CC[C@H]1[C@H](C(=O)NO)N(S(=O)(=O)N1CCC(Oc3ccnc(C(F)(F)F)c3)CC1)C2 [Example 50, ethyl (1S,2R,5R)-2-(hydroxy-carbamoyl)-3-((4-((2-(trifluoro-methyl)pyridin-4-yl)oxy)-piperidin-1-yl)-sulfonyl)-3,8-diazabicyclo-[3.2.1]octane-8-carboxylate] | 1000 to 10000 nM | 50 to 1000 nM | 50 to 1000 nM | > 10000 nM | 50 to 1000 nM |
| CN(C)C(=O)CN1[C@@H]2CC[C@H]1[C@H](C(=O)NO)N(S(=O)(=O)c1ccc(Oc3ccc(F)cc3)nc1)C2 [Example 51, (1S,2R,5R)-8-(2-(dimethylamino)-2-oxoethyl)-3-((6-(4-fluorophenoxy)pyridin-3-yl)sulfonyl)-N-hydroxy-3,8-diazabicyclo[3.2.1]octane-2-carboxamide] | > 10000 nM | < 50 nM | 50 to 1000 nM | 1000 to 10000 nM | < 50 nM |
| O=C(NO)[C@H]1[C@@H]2CC[C@H](CN1S(=O)(=O)c1ccc(Oc3ccc(F)cc3)nc1)N2CC(=O)N1CCCC1 [Example 52, (1S,2R,5R)-3-((6-(4-fluorophenoxy)pyridin-3-yl)sulfonyl)-N-hydroxy-8-(2-oxo-2-(pyrrolidin-1-yl)ethyl)-3,8-diazabicyclo[3.2.1]octane-2-carboxamide] | > 10000 nM | < 50 nM | 50 to 1000 nM | 1000 to 10000 nM | < 50 nM |
| CC(C)Oc1ccc(Oc2ccc(S(=O)(=O)N3C[C@H]4CC[C@@H]([C@@H]3C(=O)NO)N4C(=O)C(C)C)cn2)cc1 [Example 60, (1S,2R,5R)-N-hydroxy-8-isobutyry1-3-((6-(4-isopropoxy-phenoxy)pyridin-3-yl)sulfonyl)-3,8-diazabicyclo-[3.2.1]octane-2-carboxamide] | > 10000 nM | < 50 nM | < 50 nM | 1000 to 10000 nM | < 50 nM |
| CC(C)Oc1ccc(Oc2ccc(S(=O)(=O)N3C[C@H]4CC[C@@H]([C@@H]3C(=O)NO)N4C(=O)C(C)(C)C)cn2)cc1 [Example 61, (1S,2R,5R)-N-hydroxy-3-((6-(4-isopropoxyphenoxy)-pyridin-3-yl)-sulfonyl)-8-pivaloyl-3,8-diazabicyclo-[3.2.1]octane-2-carboxamide] | > 10000 nM | < 50 nM | 50 to 1000 nM | 1000 to 10000 nM | < 50 nM |
| CC(=O)N1[C@@H]2CC[C@H]1[C@H](C(=O)NO)N(S(=O)(=O)N1CCC(Oc3ccnc(C(F)(F)F)c3)CC1)C2 [Example 64, (1S,2R,5R)-8-acetyl-N-hydroxy-3-((4-((2-(trifluoromethyl)-pyridin-4-yl)oxy)-piperidin-1-yl)-sulfonyl)-3,8-diazabicyclo[3.2.1]-octane-2-carboxamide] | 1000 to 10000 nM | 50 to 1000 nM | 50 to 1000 nM | 1000 to 10000 nM | 50 to 1000 nM |
| O=C(NO)[C@H]1[C@@H]2CC[C@H](CN1S(=O)(=O)c1ccc(Oc3ccc(F)cc3)nc1)N2C(=O)N1CCOCC1 [Example 68, (1S,2R,5R)-3-((6-(4-fluorophenoxy)pyridin-3-yl)sulfonyl)-N-hydroxy-8-(morpholine-4-carbonyl)-3,8-diazabicyclo[3.2.1]octane-2-carboxamide] | 1000 to 10000 nM | < 50 nM | 50 to 1000 nM | 1000 to 10000 nM | < 50 nM |
| CN1CCN(C(=O)N2[C@@H]3CC[C@H]2[C@H](C(=O)NO)N(S(=O)(=O)c2ccc(Oc4ccc(F)cc4)nc2)C3)CC1 [Example 69, (1S,2R,5R)-3-((6-(4-fluorophenoxy)pyridin-3-yl)sulfonyl)-N-hydroxy-8-(4-methyl-piperazine-1-carbonyl)-3,8-diazabicyclo-[3.2.1]octane-2-carboxamide] | 1000 to 10000 nM | < 50 nM | 50 to 1000 nM | 1000 to 10000 nM | 50 to 1000 nM |
| CC(C)Oc1ccc(Oc2ccc(S(=O)(=O)N3C[C@H]4CC[C@@H]([C@@H]3C(=O)NO)N4C(=O)N3CCOCC3)cn2)cc1 [Example 71, (1S,2R,5R)-N-hydroxy-3-((6-(4-isopropoxyphenoxy)-pyridin-3-yl)sulfonyl)-8-(morpholine-4-carbonyl)-3,8-diazabicyclo[3.2.1]-octane-2-carboxamide] | > 10000 nM | < 50 nM | 50 to 1000 nM | 1000 to 10000 nM | < 50 nM |
| CCN1CCC(Oc2ccc(S(=O)(=O)N3C[C@H]4CC[C@@H]([C@@H]3C(=O)NO)N4C(=O)OCCOC)cn2)CC1 [Example 74, 2-methoxyethyl (1S,2R,5R)-3-((6-((1-ethylpiperidin-4-yl)oxy)pyridin-3-yl)sulfonyl)-2-(hydroxycarbamoyl)-3,8-diazabicyclo[3.2.1]octane-8-carboxylate] | > 10000 nM | > 10000 nM | 1000 to 10000 nM | > 10000 nM | > 10000 nM |
| COCCOC(=O)N1[C@@H]2CC[C@H]1[C@H](C(=O)NO)N(S(=O)(=O)c1ccc(OC3CCN(C(C)C)CC3)nc1)C2 [Example 75, 2-methoxyethyl (1S,2R,5R)-2-(hydroxycarbamoyl)-3-((6-((1-isopropyl-piperidin-4-yl)oxy)-pyridin-3-yl)-sulfonyl)-3,8-diaza-bicyclo[3.2.1]octane-8-carboxylate] | 1000 to 10000 nM | 50 to 1000 nM | 50 to 1000 nM | 1000 to 10000 nM | 50 to 1000 nM |
| COCCOC(=O)N1[C@@H]2CC[C@H]1[C@H](C(=O)NO)N(S(=O)(=O)N1CCN(Cc3ccc(Cl)cc3)CC1)C2 [Example 76, 2-methoxyethyl (1S,2R,5R)-3-((4-(4-chlorobenzyl)piperazin-1-yl)sulfonyl)-2-(hydroxycarbamoyl)-3,8-diazabicyclo[3.2.1]octane-8-carboxylate] | 1000 to 10000 nM | 50 to 1000 nM | 50 to 1000 nM | > 10000 nM | 50 to 1000 nM |
